Entries after “also recorded” stand apart in the source; their conditions may differ. Where no end group is shown, it is not given here.

For test [1], the system named is HEK293 cells. Kind of test: 6MP cytotoxicity / drug resistance in transfected HEK293 cells. In kind it is cell-based, Human. To be noted: for IC50: Homo sapiens, HEK293, 96 h, HEK293 expressing ABCC4, CellTiter Glo. As for the experimental part:
(§1) HEK293 cells transfected with ABCC4 or ABCC4ΔC in the presence or absence of MPP1, MO7e, and Meg01 cells were treated with 10 concentrations of 6MP, ranging from 1 to 1000 µM, for 96 h. Cell viability analysis was determined using CellTiter Glo (Promega). Where applicable, cell penetrating peptides conjugated to the PDZ-binding motif of ABCC4 (labeled either ABCC4-PDZ or ABCC4ΔC) were added to the cells at 20 μM. Media was changed daily and new ABCC4-PDZ/ABCC4ΔC peptide and 6MP was added. IC50 values were calculated using GraphPad Prism.
Background: ATP-based viability assays read luminescence as a measure of living cells.

The subject of test [2] is MO7e cells. Kind of test: 6MP cytotoxicity in MO7e cells and CRISPR knock-outs. In kind it is cell-based, Human. Particulars: for IC50: Homo sapiens, Mo7e, 96 h, CellTiter Glo, triplicate; for decrease of 6MP resistance vs. parental cells: MO7e. As for the experimental part:
as §1
CRISPR-Cas9 plasmids containing gRNAs against ABCC4 ([…]) and MPP1 ([…]) were purchased from Sigma Aldrich. MO7e cells were transiently transfected with constructs containing the gRNA, Cas9 Nickase, and a flurophore. Forty-eight hours after transfection, cells were sorted for fluorescent positive cells and single cells were sorted into individual wells of a 96-well plate. Single-sorted cells were allowed to expand and deletion of the gene of interest was verified by immunoblotting.
The Meg01, MO7e, and ABCC4 KO MO7e cell lines were plated at 1500 cells per well in a 96-well plate. Cells were treated with 10 concentrations of Antimycin A (Santa Cruz) ranging from 0.01 to 1000 μM. Cell viability was determined using CellTiter Glo (Promega). Meg01, MO7e, and ABCC4 KO MO7e cells in the presence or absence of 10 nM Antimycin A were treated with 10 concentrations of 6MP, ranging from 1 to 1000 µM, for 96 h. Cell viability analysis was determined using CellTiter Glo. IC50 values were calculated using GraphPad Prism.

The subject of test [3] is HEK293 cells. Kind of test: Etoposide cytotoxicity in transfected HEK293 cells. To be noted: for IC50: Homo sapiens, triplicate. It is filed as cell-based, Human.
Test [4] deals with MO7e cells. Kind of test: Etoposide cytotoxicity in MO7e cells and CRISPR knock-outs. In kind it is cell-based, Human. Particulars: for IC50: Homo sapiens, Mo7e, triplicate.
Test [5] concerns primary AML cells from adult patients. Kind of test: Annexin V/PI apoptosis in primary AML patient samples. It is filed as cell-based, Human. The method, then:
Primary AML cells from adult patients were treated with either vehicle, 50 or 100 µM cytarabine, 10 nM Antimycin A, or the combination of 50 or 100 µM cytarabine + 10 nM Antimycin A for 4 h. Post treatment, the cells were washed with fresh media (2×) and resuspended in the absence or presence of 10 nM Antimycin A and cultured for an additional 44 h (for a total treatment time of 48 h). The cells were then stained with Annexin V-fluorescein isothiocyanate (FITC)/propidium iodide (PI) apoptosis Kit (Beckman Coulter; Brea, CA, USA). The stage of apoptotic cells (Annexin V-positive, but early or late apoptosis) is identified by the proportion of AnnexinV+/PI− (early apoptosis) and Annexin V+/PI+ (late apoptosis) cells. This experiment was performed once in triplicates (presented as average ± SEM) due to the limited sample availability. Patient samples were selected based on the availability of an adequate number of cells to perform the assay.

In test [6] the test system is ABCC4 plasma membrane localization in HEK293 cells expressing MPP1 and GFP-ABCC4. Kind of test: ABCC4 plasma membrane localization (confocal microscopy). It is filed as cell-based, Human. The method, then:
Peptides containing or lacking the ABCC4-PDZ motif were fused with the cell penetrating HIV-TAT peptide. These peptides were tested for their effect on ABCC4 plasma membrane localization. HEK293 cells were transfected with MPP1 and GFP-ABCC4 and the ER protein, calreticulin. The plasma membrane was counter-stained with wheat-germ-agglutinin (WGA) labeled with Alexa647 after treatment with either ABCC4-PDZ or ABCC4ΔC peptide.
HEK293 cells were seeded on chambered coverglass slides (LAB-TEK) 48 h before transfection with plasmid DNA (250 ng) encoding pAc-GFP-ABCC4 or ABCC4ΔC and pCal plasmid encoding the ER resident protein calreticulin conjugated to RFP (Origene). Transfection was performed using Lipofectamine 2000 as per the manufacturer’s instructions. Immediately prior to visualizing cells, cells were counterstained with the plasma membrane marker wheat-germ agglutinin (WGA) conjugated to Alexa-647 (Invitrogen). All confocal microscopy images were acquired on a 3i Marianas system configured with an Yokagowa CSU-X spinning disk confocal microscope utilizing a ×63 Zeiss objective, using the 488 (GFP), 561 (RFP), and 660 (far red) laser lines.

Test [7] relates to murine hematopoietic progenitor cells (HPC). Kind of test: Hematopoietic progenitor cell serial replating in methylcellulose. Particulars: HPC transduced with MPP1; cell penetrating peptide, fresh at each replating; n = 3.
Procedure: In these experiments, littermates were used as controls. Bone marrow from 8- to 12-week-old female virgin C57/BL6 mice were harvested. Progenitors were enriched by incubating with lineage-PE antibodies (CD4, CD8, Mac1, Gr1, NK1.1, B220, and Ter119) and separated using AutoMACS Pro (Miltenyi). Hematopoetic progenitor cells were cultured in the presence of recombinant murine SCF (rmSCF), IL3 (rmIL3), and IL6 (rmIL6) (Peprotech; all 50 ng/ml) for 48 h before transduction on RetroNectin (Takara) coated plates. Retroviral supernatant containing media was produced by transient transfection of HEK293T cells with MSCV based retroviral plasmids encoding either MYCN-ires-YFP or MPP1-ires-CFP as previously described[35]. Forty-eight hours post transduction, cells were harvested, sorted for either YFP or CFP expression, and plated on methylcellulose containing IL3, IL6, SCF, and EPO (Stem Cell Technologies). Colonies were counted after 7 days growth at 37 °C, harvested, and replated.
For test [8], the system named is MO7e cells. Kind of test: 6MP cytotoxicity in MO7e cells and CRISPR knock-outs. In kind it is cell-based, Human. To be noted: cell permeable peptide (10 μM), in words.
Test [9] concerns the target T1, MPP1 and ABCC4 protein interaction (Homo sapiens, UniProt Q00013).
T1 construct: For full-length expression of MPP1, the pTriX vector containing an N-terminal His tag was used to create the His-S-MPP1 fusion protein; made in house; host or cells: E. coli
T1 sequence (Q00013 1-466): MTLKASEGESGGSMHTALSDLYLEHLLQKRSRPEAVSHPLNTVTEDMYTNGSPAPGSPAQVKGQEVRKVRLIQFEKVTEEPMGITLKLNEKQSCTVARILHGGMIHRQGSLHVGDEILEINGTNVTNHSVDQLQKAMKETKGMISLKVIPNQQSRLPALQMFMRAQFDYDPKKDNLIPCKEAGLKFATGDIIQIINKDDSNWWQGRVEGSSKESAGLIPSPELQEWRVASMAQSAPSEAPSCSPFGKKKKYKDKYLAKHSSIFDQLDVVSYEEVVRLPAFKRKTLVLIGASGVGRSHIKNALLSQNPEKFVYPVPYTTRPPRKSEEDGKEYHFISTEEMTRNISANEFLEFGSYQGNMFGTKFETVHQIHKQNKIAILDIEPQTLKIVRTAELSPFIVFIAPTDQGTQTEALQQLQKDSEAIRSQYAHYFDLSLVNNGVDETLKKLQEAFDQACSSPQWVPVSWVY
Kind of test: Competition of ABCC4 C-terminal peptides with MPP1–ABCC4 complex (GST-ABCC4-C100 pull-down, immunoblot). It is filed as biochemical. Particulars: in words; in vitro competition experiment. The method, then: C-terminal peptides of ABCC4 containing the carboxyl-terminal 15 amino acids ([…]-COOH, ABCC4-PDZ) or carboxyl-terminal 11 amino acids lacking the PDZ-binding motif ([…]-COOH, ABCC4ΔC) conjugated to the cell penetrating peptide TAT ([…]) were chemically synthesized by the Hartwell Center for Bionformatics and Biotechnology at SJCRH. ABCC4 peptides (1–4 μM) were mixed with purified GST-ABCC4-C100 (50 nM) (Supplementary Fig. 10 ) before addition of His-S-MPP1 (3.6 nM) and allowed to mix for 2 h at 24 °C. The GST-ABCC4-C100 was immobilized on glutathione beads, and washed 3 times. Protein complexes were eluted from the beads, separated by SDS-PAGE, and immunoblotted with rabbit anti-MPP1.

The next test has as its system ABCC4 (MO7e lysates). Kind of test: Immunoprecipitation of ABCC4 from MO7e lysates by purified MPP1 fragments. It is filed as binding, Human. To be noted: purified fragment with MO7e lysates, n = 3, in words. An excerpt:
For full-length expression of MPP1, the pTriX vector containing an N-terminal His tag was used to create the His-S-MPP1 fusion protein. Proteins were expressed in E. coli and purified using a nickel column (Supplementary Fig. 9). The production of cDNA constructs containing various defined segments of MPP1 has been described previously. The cDNA fragments containing either the N-terminal domain of MPP1 (amino acids 1–83), the PDZ domain (amino acids 83–160) or the C-terminal domain, containing both the SH3 and GUK domains (amino acids 161–466), were PCR amplified and subcloned into the pGex vector. All clones were fully sequenced to confirm their identity and reading frame. The GST-fusion proteins were purified using a glutathione column.

As a reminder, the IC50 is the concentration at which inhibition is half-maximal. For the molecule `Sc1ncnc2nc[nH]c12` [6MP, 6-mercaptopurine], in the test with HEK293 cells [1] (HEK293, ABCC4ΔC, in words), the “effect of MPP1 on survival of cells expressing ABCC4 lacking the PDZ motif” value is on record as “no additional survival benefit”. Besides, the “increase of 6MP IC50 by ABCC4 expression” value with HEK293 cells [1] (HEK293 ABCC4 vs. empty vector (Ctrl)) came out at 2.6 fold. Besides, the half-inhibitory concentration (IC50) with HEK293 cells [1] (end of the shift with increasing MPP1 (P < 0.05), 96 h) is 608 µM; in the test on HEK293 cells [1] (start of the shift with increasing MPP1, 96 h) it was 184 µM; in the test on MO7e cells [2] (MO7e + Antimycin A (10 nM), Fig. 6a), 13.6 µM; in the test on MO7e cells [2] (MO7e ABCC4 KO + Antimycin A (10 nM), Fig. 6a) it was 22.2 µM; with MO7e cells [2] (MO7e ABCC4 KO, Fig. 4f) it was 27.6 µM; in the test on MO7e cells [2] (MO7e DKO (ABCC4 and MPP1), Fig. 4f) it was 10.9 µM. For the same molecule, the IC50 in the test on MO7e cells [2] (MO7e MPP1 KO, Fig. 4f) was found to be 27.7 µM; in the test on MO7e cells [2] (MO7e parental, Fig. 4f) it was 135 µM; in the test with MO7e cells [2] (without Antimycin A, Fig. 6a), 135 µM. Besides, the “decrease of 6MP resistance vs. parental cells” value in the test with MO7e cells [2] (MPP1 deletion alone) and in the test with MO7e cells [2] (deletion of ABCC4) was “over fourfold” in each case.
Consider `COc1cc([C@@H]2c3cc4c(cc3[C@@H](O[C@@H]3O[C@@H]5CO[C@@H](C)O[C@H]5[C@H](O)[C@H]3O)[C@H]3COC(=O)[C@H]23)OCO4)cc(OC)c1O` [Etoposide, etoposide], for which, in the test on HEK293 cells [3] (HEK293, in words), the “effect of ABCC4 and/or MPP1 on etoposide sensitivity” value is “not affected by MPP1; also recorded: not affected by the presence of either ABCC4 and/or MPP1”. The IC50 in the test with HEK293 cells [3] (HEK293, HEK293 ABCC4 + MPP1) worked out at 1.2 µM; with HEK293 cells [3] (HEK293, HEK293 ABCC4), 1.3 µM; with HEK293 cells [3] (HEK293, HEK293 ABCC4ΔC + MPP1) it was 1.2 µM; with HEK293 cells [3] (HEK293, HEK293 ABCC4ΔC), 1.5 µM; in the test with HEK293 cells [3] (HEK293, HEK293 Ctrl (empty vector)) it was 1.4 µM; in the test with MO7e cells [4] (MO7e ABCC4 KO), 23.9 µM. Also, the IC50 in the test with MO7e cells [4] (MO7e DKO) stood at 21.5 µM; in the test on MO7e cells [4] (MO7e MPP1 KO), 20 µM; in the test with MO7e cells [4] (MO7e parental) it was 27.2 µM. Further, the “etoposide sensitivity of knock-out strains” value in the test with MO7e cells [4] (MO7e ABCC4 KO, MPP1 KO, DKO, in words) is listed as “did not affect etoposide sensitivity; also recorded: equally sensitive to etoposide”.
Regarding `Nc1ccn([C@@H]2O[C@H](CO)[C@@H](O)[C@@H]2O)c(=O)n1` [cytarabine, cytosine arabinoside], the “cytarabine response of primary AML cells” value in test [5] (one primary AML patient sample, in culture and in vivo (peer review file)) is “non-responsive”; in [5] (the other patient sample (peer review file)), “sensitive”.
For the molecule “SNGQPSTLTIF-COOH (YGRKKRRQRRRSNGQPSTLTIF-OH) [ABCC4ΔC]”, the “ABCC4 remaining at the membrane” value in [6] (cell penetrating peptide (TAT fused; 10 μM in Supplementary Fig. 4), n = 20 fields of view) is greater than 80%. In [6] (in words, confocal microscopy), the “effect on ABCC4 plasma membrane localization” value is reported as “ineffective in relocalizing ABCC4”. Besides, the “effect of peptide on 6MP IC50” value in the test on HEK293 cells [1] (HEK293 co-expressing ABCC4 and MPP1, cell penetrating peptide (20 μM in methods; various amounts), 96 h, in words) is given as “without effect; also recorded: no effect on 6MP IC50 values”. In test [7], the “effect on MPP1-driven methylcellulose replating” value is “incapable of suppressing MPP1-stimulated replating”. Besides, the “effect of peptide on 6MP sensitivity” value in the test on MO7e cells [8] is given as “had no effect”. Besides, in test [9], the “disruption of the MPP1 and ABCC4 protein interaction” value is “incapable of disrupting the MPP1 and ABCC4 protein interaction”.

B1: MPP1 N terminus: MPP1 N terminus, up to the PDZ domain (amino acids 1–83) (protein, UniProt Q00013 1-83, looked up, fragment)
chain: MTLKASEGESGGSMHTALSDLYLEHLLQKRSRPEAVSHPLNTVTEDMYTNGSPAPGSPAQVKGQEVRKVRLIQFEKVTEEPMG
As to B1, the “immunoprecipitation of ABCC4” value in the test on ABCC4 (MO7e lysates) is given as “incapable of immunoprecipitating ABCC4”.

B2: SH3 and GUK domain: SH3 and GUK domain of MPP1 (amino acids 162–466) (protein, UniProt Q00013 162-466, looked up, fragment)
chain: FMRAQFDYDPKKDNLIPCKEAGLKFATGDIIQIINKDDSNWWQGRVEGSSKESAGLIPSPELQEWRVASMAQSAPSEAPSCSPFGKKKKYKDKYLAKHSSIFDQLDVVSYEEVVRLPAFKRKTLVLIGASGVGRSHIKNALLSQNPEKFVYPVPYTTRPPRKSEEDGKEYHFISTEEMTRNISANEFLEFGSYQGNMFGTKFETVHQIHKQNKIAILDIEPQTLKIVRTAELSPFIVFIAPTDQGTQTEALQQLQKDSEAIRSQYAHYFDLSLVNNGVDETLKKLQEAFDQACSSPQWVPVSWVY
On to B2, for which the “immunoprecipitation of ABCC4” value in the test with ABCC4 (MO7e lysates) is on record as “incapable of immunoprecipitating ABCC4”.
